Source: patent publication US7989176B2, “Treating cancer” (Theryte Ltd., priority 2002, dated 2011)

How the values were obtained:
[1] = tested on: advanced gastric cancer; details: completed phase II study, patients with advanced gastric cancer (Kaubisch et al. 2000); cited from earlier work
[2] = tested on: HCT116 cells; experiment: TUNEL assay for apoptosis (ApopTag kit); format: cell-based; details: 48 h after transfection
Procedure: (§1) Sense and antisense phosphorothionate oligonucleotide with the sequence set out in SEQ1 and SEQ2 respectively were synthesised in a 380B DNA synthesiser. Each oligonucleotide was premixed with lipofectin reagent and diluted in DMEM (Gibco). 6 cm plates of HCT116 cells at 40-50% confluence were rinsed once with 4 ml serum free DMEM and transfected with the oligonucleotides at a final concentration of 1 μM and the lipofectin reagent at a final concentration of 19 μg/ml according to the manufacturer's instructions (Life Technologies Inc., Gaithersburg, Md.). After 4 hours, Foetal Calf Serum (Gibco) was added to a final concentration of 10%. A lipofectin only transfection was performed as a control. Cell extracts were harvested after 48 h and examined by Western blot analysis with a pRb antibody. Equal loading of protein samples was confirmed by Coomassie blue staining or by immunoreactivity with an anti-actin antibody (Sigma). The intensities of the Rb bands were quantised with an image scanner (Molecular Dynamics). […] The treatment with the sense oligonucleotide led to about a 5% reduction in the level of pRb. […] Apoptosis in the cultures 48 h after transfection was tested for using the TUNEL assay. An in situ apoptosis detection kit ApopTag (Oncor, Gaithersburg, Md.) was used as recommended by the manufacturer. […]

[3] = tested on: HCT116 cells; experiment: Growth curves of transfected cultures; format: cell-based; details: oligonucleotide 1 μM
Procedure: as §1

[4] = tested on: pRb; experiment: Western blot analysis of pRb expression after oligonucleotide transfection; format: cell-based; details: HCT116 cells, oligonucleotide 1 μM with lipofectin 19 μg/ml, extracts harvested after 48 h
Procedure: as §1

Compound | clinical responses [1] | increase in apoptosis ([2]; versus lipofectin treated culture) [fold] | percentage of TUNEL positive cells ([2]; oligonucleotide 1 μM) | effect on growth compared with the lipofectin-treated control culture [3] | level of pRb expression relative to the control culture treated only with lipofectin [4]
CN1CC[C@H](c2c(O)cc(O)c3c(=O)cc(-c4ccccc4Cl)oc23)[C@H](O)C1 [flavopiridol] | no clinical responses were observed |  |  |  | 
antisense oligonucleotide: antisense phosphorothionate oligonucleotide to Rb, sequence SEQ2: 5′ -GGTTTTGGGCGGCATGAC-3′ (DNA, all phosphorothioate, methylation of C not given here) |  | > 10 | 18+/−0.5% | growth inhibition | about 30%
